Test results as given in patent US8110582B2, “Prophylactic treatment of UV-induced epidermal neoplasia” (3M Innovative Properties Company, priority 2003, dated 2012).

Experiments:
Type in all cases: in vivo
[1] = system: UV-induced squamous cell carcinoma (SCC), actinic keratosis (AK), or pre-AK lesions; test: UV-induced epidermal neoplasia in SKH-1 mice, Example 3 (simultaneous initiation, 18 weeks); conditions: for % Disease: topical twice per week, UV five days per week for 18 weeks; for Avg. Disease Score: twice per week, UV 18 weeks, SCC + AK + pre-AK lesion score (Table 5)
Excerpt: (§1) Female SKH-1 mice 9-10 weeks old were obtained from Charles River (Raleigh, N.C.) and housed in a room with controlled temperatures and humidity and alternating 12-hour light and dark cycles. The room is lit with fluorescent lights covered by yellow sleeves from EncapSulite International, Inc. (Rosenberg, Tex.) to eliminate all ambient UV radiation. The mice were fed with a 12% Corn Oil Purified Diet from Purina Test Diet (Richmond, Va.) and water, ad libitum. The animals were maintained in facilities approved by the Association for the Assessment and Accreditation of Laboratory Animal Care International and in accordance with current United States Department of Agriculture, Department of Health and Human Services, and National Institutes of Health regulations and standards.
(§2) A small group of mice were not exposed to UV and were used as negative controls. The other mice were chronically UV irradiated. After randomization the mice were lightly anesthetized with halothane and adjustable collars made of hook and loop fastener approximately 10 mm wide and 70 mm long were placed around the mouse's neck to prevent oral ingestion of the IRM. Unless otherwise indicated, thirty minutes before UV exposure mice were topically dosed with 30 μL of either (1) vehicle formulation, (2) IRM formulation, or (3) an SPF 30 sunscreen (NEUTROGENA SPF30 Sunblock with PARSOL 1789), two times per week for a total of 15-18 weeks on the dorsal surface in an area approximately 6 cm^2. Approximately four hours after dosing, the topical treatment (i.e, vehicle formulation; IRM formulation, or sunscreen) was washed off using a dilute soap solution.
(§3) Mice were placed in a standard plexiglass rat cage, 9-10 at a time, that was separated into 12 individual compartments with plexiglass dividers and placed on a shelf 14 inches below the light source without wire cage tops. The mice were exposed to UV radiation 5 times per week (Monday thru Friday) for an average of 15-18 weeks. The UV radiation was provided by a bank of six FS40 lamps (National Biological Corporation, Twinsburg, Ohio), filtered by a Kodacel filter (140 μm thick K6808 cellulose triacetate film; Eastman Kodak, Rochester, N.Y.) that transmits radiation having a wavelength from about 293 nm to about 400 nm. The Kodacel filter was aged 4-6 hours before use. The lights emit UVB (21%) and UVA (79%) light with a peak wavelength of 313 nm, as measured using a radiometer Model PMA 2200 from Solar Light Company (Philadelphia, Pa.) with a PMA 2101 detector for UVB and PMA2110 detector for UVA.
(§4) The dose of UVB irradiation was measured by MED (minimal erythemal dose). By using MED, a relatively constant incident dose of UV was maintained over time. The initial dose of UVB to the mice was 12.6 mJ/cm^2 (0.6 MED) and the average total dose of UVB was 3000-5200 mJ/cm^2. An increase of 10-20% of the MED dose per week was needed due to acclimation of the mice.
(§5) All mice were distinguished from one another by a tattoo placed on the tail. The development and appearance of tumors were noted weekly and recorded starting at about 14-18 weeks.
Formulations of IRM1 and IRM2 were prepared using Vehicle 1. UV dosing and IRM dosing were initiated simultaneously. UV dosing was performed five days per week for 18 weeks.
After 18 weeks, the mice were subjected to gross inspection to determine the presence of a disease state, i.e., squamous cell carcinoma (SCC), actinic keratosis (AK), or pre-AK lesions.
The disease state of each mouse was scored by measuring the size and/or number of lesions present on the mouse. SCC lesions and AK lesions of at least 1 mm in diameter were given a score of 1.
The SCC lesion score, AK lesion score, and the pre-AK lesion score (according to Table 5) were added to provide a total disease score for each mouse. Table 6 includes the average disease score for all of the mice in each treatment group.

[2] = system: UV-induced squamous cell carcinoma (SCC), actinic keratosis (AK), or pre-AK lesions; test: UV-induced epidermal neoplasia in SKH-1 mice, Example 1 (UV and IRM dosing initiated simultaneously, 15 weeks); conditions: 0.1% formulation in Vehicle 1, topical twice per week, UV five days per week for 15 weeks
Excerpt: Female SKH-1 mice 9-10 weeks old were obtained from Charles River (Raleigh, N.C.) and housed in a room with controlled temperatures and humidity and alternating 12-hour light and dark cycles. The room is lit with fluorescent lights covered by yellow sleeves from EncapSulite International, Inc. (Rosenberg, Tex.) to eliminate all ambient UV radiation. The mice were fed with a 12% Corn Oil Purified Diet from Purina Test Diet (Richmond, Va.) and water, ad libitum. […]
Mice were placed in a standard plexiglass rat cage, 9-10 at a time, that was separated into 12 individual compartments with plexiglass dividers and placed on a shelf 14 inches below the light source without wire cage tops. […] The lights emit UVB (21%) and UVA (79%) light with a peak wavelength of 313 nm, as measured using a radiometer Model PMA 2200 from Solar Light Company (Philadelphia, Pa.) with a PMA 2101 detector for UVB and PMA2110 detector for UVA.
The dose of UVB irradiation was measured by MED (minimal erythemal dose). […]
All mice were distinguished from one another by a tattoo placed on the tail. The development and appearance of tumors were noted weekly and recorded starting at about 14-18 weeks. […]

[3] = system: UV-induced squamous cell carcinoma (SCC), actinic keratosis (AK), or pre-AK lesions; test: UV-induced epidermal neoplasia in SKH-1 mice, Example 4 (simultaneous initiation, 17 weeks); conditions: 0.1% formulation, twice per week; for Avg. Disease Score: UV 17 weeks, every SCC, AK and pre-AK lesion scored 1; for % Disease / Diseased (number of mice): UV five days per week for 17 weeks
Excerpt: as §1, §2, §3, §4, §5
UV dosing and IRM dosing were initiated simultaneously. Daily UV dosing was performed five days per week for 17 weeks. IRM dosing was performed twice per week with the compounds indicated in Table 9, each in a 0.1% formulation. SPF dosing was performed five times per week.
An additional group of mice were topically dosed twice per week with 0.1% formulation of a non-IRM control compound: 1,5-dihydro-1-(2-methylpropyl)-4H-imidazo[4,5-c]quinolin-4-one, the synthesis of which is described in U.S. Pat. No. 4,698,348, Example 71, formulated as shown in Table 8. The non-IRM compound is structurally related to, but outside the scope of, IRM compounds as provided above. […] Mice in the non-IRM group were UV dosed five times per week for 18 weeks. […]

[4] = system: actinic keratosis (AK) lesions; test: Clinical treatment of actinic keratosis lesions and recurrence at follow-up, Example 5
Procedure: Subjects with four to eight clinically typical, visible, discrete actinic keratosis (AK) lesions in a 25 cm^2 treatment area were randomized in a 1:1 ratio to receive either a 5% cream formulation of IRM14 (ALDARA, 3M Company, St. Paul, Minn.) or vehicle cream once daily three days per week. Subjects received treatment for sixteen weeks even if clinical evidence of lesion clearance was observed. Subjects were evaluated at an Evaluation visit eight weeks after the treatment period concluded.
Subjects were instructed to administer a single application of cream (vehicle or IRM14, as assigned) to the treatment area at approximately the same time of day three days per week. The subjects were instructed to wash the treatment area prior to applying the cream, rub the cream into the treatment area, and then leave the cream in place for at least eight hours without occlusion.
Subjects with no (zero) clinically visible AK lesions in the 25 cm^2 treatment area at the Evaluation visit were considered complete responders. 117 of 242 (48.3%) subjects receiving IRM14 were complete responders; 18 of 250 (7.2%) vehicle-treated subjects were complete responders.
Complete responders were re-evaluated for recurrence of AK lesions at a Follow-up visit between 12 and 18 months after the Evaluation visit. Subjects received no IRM14 treatment between the Evaluation visit and the Follow-up visit. […]

SMILES	Avg. Disease Score [3]	% Disease [3]	Diseased (number of mice) [3]	also measured
CC(C)Cn1cnc2c(N)nc3cccnc3c21 [IRM1, 1-(2-methylpropyl)-1H-imidazo[4,5-c][1,5]naphthyridin-4-amine]	–	–	–	% Disease ([1]; 0.01% formulation): 71%; Avg. Disease Score ([1]; 0.01% formulation): 2.86 ± 0.82; % Disease ([1]; 0.1% formulation): 50%; Avg. Disease Score ([1]; 0.1% formulation): 0.66 ± 0.33; % Disease (percentage of mice exhibiting a disease state) [2]: 0%
Nc1nc2ccccc2c2c1nc1n2CCCC1 [IRM3, 8,9,10,11-tetrahydropyrido[1′,2′:1,2]imidazo[4,5-c]quinolin-6-amine]	1.00 ± 0.54	30%	3	–
CCOCc1nc2c(N)nc3ccccc3c2n1CC(C)(C)NC(=O)C1CCCCC1 [IRM4, N-{2-[4-amino-2-(ethoxymethyl)-1H-imidazo[4,5-c]quinolin-1-yl]-1,1-dimethylethyl}cyclohexanecarboxamide]	0.67 ± 0.67	11%	1	–
CCc1nc2c(N)nc3ccccc3c2n1CCCCNC(=O)C(C)C [IRM5, N-[4-(4-amino-2-ethyl-1H-imidazo[4,5-c]quinolin-1-yl)butyl]-2-methylpropanamide]	5.40 ± 1.91	60%	6	–
CCCc1nc2c(N)nc3ccccc3c2n1CC(C)(C)NS(C)(=O)=O [IRM6, N-[2-(4-amino-2-propyl-1H-imidazo[4,5-c]quinolin-1-yl)-1,1-dimethylethyl]methanesulfonamide]	0.38 ± 0.38	13%	1	–
COCCc1nc2c(N)nc3c(c2n1CC(C)(C)NS(C)(=O)=O)CCCC3 [IRM7, N-{2-[4-amino-2-(2-methoxyethyl)-6,7,8,9-tetrahydro-1H-imidazo[4,5-c]quinolin-1-yl]-1,1-dimethylethyl}methanesulfonamide]	3.90 ± 1.30	60%	6	–
CCCc1nc2c(N)nc3ccccc3c2n1CCCCNC(=O)NC(C)C [IRM8, N-[4-(4-amino-2-propyl-1H-imidazo[4,5-c]quinolin-1-yl)butyl]-N′-isopropylurea]	3.13 ± 0.89	75%	6	–
CCOCc1nc2c(N)nc(C)c(C)c2n1CC(C)(C)NC(=O)NC1CCCCC1 [IRM9, N-{2-[4-amino-2-(ethoxymethyl)-6,7-dimethyl-1H-imidazo[4,5-c]pyridin-1-yl]-1,1-dimethylethyl}-N′-cyclohexylurea]	2.00 ± 0.89	60%	3	–
Nc1nc2ccccc2c2c1ncn2CCOCCCc1cccnc1 [IRM10, 1-{2-[3-(3-pyridyl)propoxy]ethyl}-1H-imidazo[4,5-c]quinolin-4-amine]	2.50 ± 1.07	70%	7	–
CCCCc1nc2c(N)nc3ccccc3c2n1CCCS(C)(=O)=O [IRM11, 2-butyl-1-[3-(methylsulfonyl)propyl]-1H-imidazo[4,5-c]quinolin-4-amine]	0.70 ± 0.47	20%	2	–
CCCCc1nc2c(N)nc3ccccc3c2n1CCS(=O)(=O)CCC [IRM12, 2-butyl-1-[2-(propylsulfonyl)ethyl]-1H-imidazo[4,5-c]quinolin-4-amine]	0.00 ± 0.00	0%	0	–
CCOCc1nc2c(N)nc3ccccc3c2n1NC(C)C [IRM13, 2-ethoxymethyl-N^1-isopropyl-1H-imidazo[4,5-c]quinoline-1,4-diamine]	3.33 ± 1.54	67%	4	–
CC(C)Cn1cnc2c(N)nc3ccccc3c21 [IRM14, 1-(2-methylpropyl)-1H-imidazo[4,5-c]quinolin-4-amine]	–	–	–	complete responders (no clinically visible AK lesions in the 25 cm^2 treatment area at the Evaluation visit) ([4]; 5% cream once daily three days per week for sixteen weeks, evaluated eight weeks after treatment, 117 of 242 subjects): 48.3%; AK Recurrence Rate ([4]; complete responders at Follow-up visit 12 to 18 months after Evaluation visit, no treatment in between, 77 IRM14-treated): 24.7%
